Reference: the NIST ThermoML archive (doi:10.1016/j.jct.2016.12.012)
Values joined by “and” are separate entries in the source; they are usually repeats but may differ in a detail not shown here. Identical values can stand only once.

Experiments:
[1] = for Normal melting temperature: DTA
[2] = Molar enthalpy of transition or fusion; settings: DSC

CC(=O)Oc1ccccc1C(C)=O [2'-acetoxyacetophenone]
[1]
Settings	vapor or sublimation pressure
298.01 K, Crystal, Calculated from knudsen effusion weight loss	6.1e-05 kPa and 6e-05 kPa
299.4 K, Crystal, Calculated from knudsen effusion weight loss	7.4e-05 kPa
301.22 K, Crystal, Calculated from knudsen effusion weight loss	9.7e-05 kPa and 9.6e-05 kPa
303.17 K, Crystal, Calculated from knudsen effusion weight loss	0.000121 kPa and 0.000122 kPa and 0.000124 kPa
305.39 K, Crystal, Calculated from knudsen effusion weight loss	0.000164 kPa and 0.000166 kPa
307.2 K, Crystal, Calculated from knudsen effusion weight loss	0.000214 kPa and 0.000217 kPa and 0.000215 kPa
309.14 K, Crystal, Calculated from knudsen effusion weight loss	0.000275 kPa and 0.000277 kPa
311.34 K, Crystal, Calculated from knudsen effusion weight loss	0.000362 kPa and 0.000361 kPa and 0.000365 kPa
313 K, Crystal, Closed cell (Static) method	0.00046 kPa
313.21 K, Crystal, Calculated from knudsen effusion weight loss	0.000467 kPa and 0.000465 kPa and 0.000469 kPa
315.01 K, Crystal, Closed cell (Static) method	0.0006 kPa
315.13 K, Crystal, Calculated from knudsen effusion weight loss	0.00059 kPa and 0.000588 kPa and 0.000593 kPa
316.99 K, Crystal, Closed cell (Static) method	0.00076 kPa
317.31 K, Crystal, Calculated from knudsen effusion weight loss	0.000786 kPa and 0.000778 kPa
318.98 K, Crystal, Closed cell (Static) method	0.00097 kPa
319.28 K, Crystal, Calculated from knudsen effusion weight loss	0.00102 kPa and 0.001014 kPa and 0.001001 kPa
320.96 K, Crystal, Closed cell (Static) method	0.00123 kPa
321.27 K, Crystal, Calculated from knudsen effusion weight loss	0.001305 kPa and 0.001292 kPa and 0.001286 kPa
322.97 K, Crystal, Closed cell (Static) method	0.00156 kPa
324.96 K, Crystal, Closed cell (Static) method	0.00199 kPa
326.91 K, Crystal, Closed cell (Static) method	0.0025 kPa
328.91 K, Crystal, Closed cell (Static) method	0.00314 kPa
330.92 K, Crystal, Closed cell (Static) method	0.00397 kPa
332.88 K, Crystal, Closed cell (Static) method	0.00495 kPa
334.86 K, Crystal, Closed cell (Static) method	0.00619 kPa
336.81 K, Crystal, Closed cell (Static) method	0.00762 kPa
338.84 K, Crystal, Closed cell (Static) method	0.00958 kPa
340.8 K, Crystal, Closed cell (Static) method	0.01175 kPa
342.74 K, Crystal, Closed cell (Static) method	0.01458 kPa
344.72 K, Crystal, Closed cell (Static) method	0.01786 kPa
344.73 K, Metastable liquid, Closed cell (Static) method	0.03005 kPa
346.7 K, Crystal, Closed cell (Static) method	0.02195 kPa
346.73 K, Metastable liquid, Closed cell (Static) method	0.03465 kPa
348.65 K, Metastable liquid, Closed cell (Static) method	0.03975 kPa
348.68 K, Crystal, Closed cell (Static) method	0.02665 kPa
350.65 K, Metastable liquid, Closed cell (Static) method	0.04556 kPa
350.69 K, Crystal, Closed cell (Static) method	0.0325 kPa
352.61 K, Crystal, Closed cell (Static) method	0.0395 kPa
352.64 K, Metastable liquid, Closed cell (Static) method	0.05208 kPa
354.59 K, Metastable liquid, Closed cell (Static) method	0.05928 kPa
354.61 K, Crystal, Closed cell (Static) method	0.04802 kPa
356.54 K, Crystal, Closed cell (Static) method	0.05812 kPa
356.54 K, Metastable liquid, Closed cell (Static) method	0.06775 kPa
358.51 K, Metastable liquid, Closed cell (Static) method	0.07683 kPa
360.53 K, Metastable liquid, Closed cell (Static) method	0.08729 kPa
362.46 K, Metastable liquid, Closed cell (Static) method	0.0988 kPa
364.45 K, Closed cell (Static) method, Liquid	0.1124 kPa
366.49 K, Closed cell (Static) method, Liquid	0.127 kPa
368.43 K, Closed cell (Static) method, Liquid	0.1443 kPa
370.48 K, Closed cell (Static) method, Liquid	0.162 kPa
372.37 K, Closed cell (Static) method, Liquid	0.1819 kPa
374.39 K, Closed cell (Static) method, Liquid	0.205 kPa
376.34 K, Closed cell (Static) method, Liquid	0.2324 kPa
378.28 K, Closed cell (Static) method, Liquid	0.2588 kPa
380.23 K, Closed cell (Static) method, Liquid	0.2847 kPa
382.24 K, Closed cell (Static) method, Liquid	0.3195 kPa
384.15 K, Closed cell (Static) method, Liquid	0.3609 kPa
386.19 K, Closed cell (Static) method, Liquid	0.3984 kPa
388.15 K, Closed cell (Static) method, Liquid	0.4446 kPa
390.12 K, Closed cell (Static) method, Liquid	0.4936 kPa
392.04 K, Closed cell (Static) method, Liquid	0.5463 kPa
394.07 K, Closed cell (Static) method, Liquid	0.6059 kPa
395.98 K, Closed cell (Static) method, Liquid	0.6687 kPa
398 K, Closed cell (Static) method, Liquid	0.7392 kPa

Crystal
Settings	Molar enthalpy of transition or fusion [kcal/mol]	Normal melting temperature [°C]
[1]	–	88.7
[2]	7.72	–

CC(=O)Oc1cccc(C(C)=O)c1 [3-acetoxyacetophenone]
[1], Crystal 2, Calculated from knudsen effusion weight loss
Settings	vapor or sublimation pressure
297.65 K	0.000123 kPa and 0.000124 kPa
299.16 K	0.000153 kPa and 0.000152 kPa
300.09 K	0.000169 kPa and 0.000167 kPa and 0.000168 kPa
301.23 K	0.000194 kPa and 0.000196 kPa
302.21 K	0.00023 kPa
303.25 K	0.000262 kPa and 0.000259 kPa
304.24 K	0.000293 kPa and 0.00029 kPa
305.23 K	0.000337 kPa and 0.00034 kPa and 0.000334 kPa
306.24 K	0.000387 kPa and 0.000383 kPa and 0.000389 kPa
307.26 K	0.000436 kPa and 0.000441 kPa and 0.000434 kPa

[1]
Settings	vapor or sublimation pressure [kPa]
305.09 K, Metastable liquid, Closed cell (Static) method	0.00046
307.07 K, Metastable liquid, Closed cell (Static) method	0.00055
309.03 K, Metastable liquid, Closed cell (Static) method	0.00067
311.04 K, Metastable liquid, Closed cell (Static) method	0.00082
312.98 K, Metastable liquid, Closed cell (Static) method	0.001
315.01 K, Closed cell (Static) method, Liquid	0.00122
317.02 K, Closed cell (Static) method, Liquid	0.00147
319.06 K, Closed cell (Static) method, Liquid	0.00173
320.99 K, Closed cell (Static) method, Liquid	0.00206
323.04 K, Closed cell (Static) method, Liquid	0.00247
324.96 K, Closed cell (Static) method, Liquid	0.00291
326.99 K, Closed cell (Static) method, Liquid	0.00346
328.93 K, Closed cell (Static) method, Liquid	0.0041
330.94 K, Closed cell (Static) method, Liquid	0.00489
332.92 K, Closed cell (Static) method, Liquid	0.00565
334.91 K, Closed cell (Static) method, Liquid	0.00677
336.87 K, Closed cell (Static) method, Liquid	0.00798
338.84 K, Closed cell (Static) method, Liquid	0.00935
340.83 K, Closed cell (Static) method, Liquid	0.01079
342.8 K, Closed cell (Static) method, Liquid	0.01271
344.79 K, Closed cell (Static) method, Liquid	0.01475
346.92 K, Closed cell (Static) method, Liquid	0.01728
348.74 K, Closed cell (Static) method, Liquid	0.01981
350.69 K, Closed cell (Static) method, Liquid	0.02301
352.67 K, Closed cell (Static) method, Liquid	0.02636
354.64 K, Closed cell (Static) method, Liquid	0.03047
356.61 K, Closed cell (Static) method, Liquid	0.0348
358.61 K, Closed cell (Static) method, Liquid	0.03975
360.51 K, Closed cell (Static) method, Liquid	0.04544
362.54 K, Closed cell (Static) method, Liquid	0.05195
364.52 K, Closed cell (Static) method, Liquid	0.05948
366.49 K, Closed cell (Static) method, Liquid	0.06748
368.46 K, Closed cell (Static) method, Liquid	0.07663

Settings	Molar enthalpy of transition or fusion, Crystal 1 [kcal/mol]	Molar enthalpy of transition or fusion, Crystal 2 [kcal/mol]	Normal melting temperature, Crystal 1 [°C]	Triple point temperature, Crystal 2, DSC [K]
[1]	–	–	43.1	308.1
[2]	5.54	0.239	–	–
